In patent US20220356163A1, “SMALL MOLECULE INHIBITORS OF Id PROTEINS” (MEMORIAL SLOAN KETTERING CANCER CENTER, priority 2019, published 2022):

Legend:
Assay type in all cases: cell-based
ID1 mRNA = experiment: qRT-PCR for ID1 in HCT116 cells; conditions: 40 μM, 24 hours
Description: qRT-PCR. RNA was extracted using the RNeasy kit (Qiagen, Valencia, Calif., USA) and cDNA was generated from 1 μg of RNA using SuperScript IV First-Strand Synthesis System (Invitrogen, Grand Island, N.Y., USA). Quantitative PCR was performed using SYBR Green QuantiTect Primer Assay (Qiagen) according to manufacturer's instructions in a 7900HT Fast-Real Time PCR System Instrument (Applied Biosystems, Grand Island, N.Y., USA). Primer pairs for the individual genes were obtained from the bioinformatically validated QuantiTect Library and are as follows: ID1 (QT00230650), ID3 (QT01673336), and GAPDH (QT01192646). The fold changes in gene expression were calculated using the delta-delta CT method.

PDX-IBT = experiment: MTT assay, PDX-IBT; conditions: 24 h, PDX cell line, read-out: IC50 value after 24 hours of treatment
Description: (§1) The 4T1 murine mammary tumor cell line and nine breast cancer cell lines representing the major breast cancer subtypes (ER+, HER2+, and TNBC) including MDA-MB-157, MDA-MB-436, MDA-MB-231, MDA-MB-453, MDA-MB-361, BT-474, SK-BR-3, MCF-7 and T47-D will be grown in RPMI or DMEM (Dulbecco's Modified Eagle Medium) media supplemented with 10% FBS (fetal bovine serum), 1% penicillin-streptomycin and 1% L-Glutamine. Patient derived xenograft cell lines BR7, BR11, and IBT will be established directly from breast cancer bone metastases specimens surgically resected from patients with informed consent. BR7 and BR11 specimens will be obtained from ER positive (HER2 negative and PR negative) metastatic breast cancer patients, while the IBT specimen will be obtained from a metastatic, triple negative breast cancer patient. Fresh tumor tissues will be quickly washed with ice cold PBS and minced into about 1-3 mm pieces in MEM medium (without FBS) using sterile razor blades. […] The cells will be treated with either 100 μM DMSO, AGX51, or a compound of the present technology such as AGX-A. The cell morphology and growth will be monitored daily for 1 week by microscopy for changes in morphology or cell death. […] Absorbance will then measured at 570 nm using a plate reader (Synergy 2, BioTek). […]

ID1 = molecular target: T1, ID1 (Homo sapiens, UniProt P41134); experiment: Ubiquitylation assay in HCT116 and U87 cells; conditions: 60 μM AGX51 two hours, then MG132 six hours
T1 sequence (P41134 1-155): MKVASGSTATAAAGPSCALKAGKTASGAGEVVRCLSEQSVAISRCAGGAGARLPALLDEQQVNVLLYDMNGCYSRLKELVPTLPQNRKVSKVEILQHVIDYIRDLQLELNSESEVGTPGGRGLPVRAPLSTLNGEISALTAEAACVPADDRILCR
Description: Ubiquitylation assay. HCT116 cells were transfected with pcDNA3-ID1-Flag and pcDNA3-HA-Ubiquitin using lipofectamine 3000 (ThermoFisher). 36 hours after transfection, cells were treated with 60 μM AGX51 for two hours followed by 20 μM MG132 (EMD Millipore) for an additional six hours. After washing with ice-cold PBS twice, cells were lysed in 100 μL of TBS (50 mM Tris-HCl, pH 8.0, 150 mM NaCl) containing 2% SDS and boiled at 100° C. for 10 minutes. Lysates were diluted with 900 μL of TBS containing 1% NP40 and EDTA free protease inhibitor cocktail (Roche) and were cleared by centrifuge at 15,000 rpm for 15 minutes at 4° C. Immunoprecipitation was performed using 1 mg of cellular lysates with FLAG M2 affinity gel (Sigma, F2426). Ubiquitinylated proteins were analyzed by immunoblot using indicated antibodies.
Id proteins are degraded by the ubiquitin 26S proteasome system. Lasorella et al., Nat Rev Cancer, 14: 77-91 (2014). To determine if this degradation pathway mediated the effects of AGX51 on Id protein levels was then explored. HUVECs are difficult to transfect with expression constructs, so HCT116 cells were utilized for this assay. HCT116 cells were transfected with a construct expressing Flag-ID1 and then treated with 60 μM AGX51 for 2-24 hours (FIG. 3B). […]

T47-D = experiment: MTT assay, T47-D; conditions: ER +ve cell line, 24 hours
Description: as §1

Q: With `CCC(=O)N(CCC(c1ccc2c(c1)OCO2)c1ccccc1OC)Cc1ccccc1` (racemic) [AGX51, N-(3-(benzo[d][1,3]dioxol-5-yl)-3-(2-methoxyphenyl)propyl)-N-benzylpropionamide] as the molecule, how does the “ID1 mRNA levels” value (ID1 mRNA) read?
A: The value was “increase in ID1 mRNA levels”.

Q: And the IC50 (PDX-IBT)?
A: Its IC50 is 12 µM.

Q: What about the ID1 polyubiquitylation (ID1) of the same molecule?
A: The ID1 polyubiquitylation was “further increased ID1 polyubiquitylation”.

Q: And the “percentage at 60 μM (IC50 NA)” value (T47-D)?
A: Its value is “NA (60 μM = 65%)”.
